In US20100239556A1, “PROMOTING ECM PRODUCTION BY FIBROBLAST CELLS AND/OR PROMOTING MIGRATION OF FIBROBLAST CELLS IN A BIOLOGICAL SYSTEM” (TGR BioScience Pty Ltd., priority 2006, published 2010):

Legend:
human skin = assay: Collagen I and III immunohistochemistry in ex vivo human skin (Franz cell); conditions: intradermal injection 100 μl, 72 hours
Experimental: To confirm proteins with peroxidise activity can stimulate ECM production in human skin, studies were performed on ex vivo skin collected from tissue reduction surgery. The studies were undertaken using a modification of the OECD Test Guideline 428 (2004) Skin Absorption: in vitro method. Freshly excised human skin was collected in a
Hanks balanced salt solution (HBSS) and after being thoroughly washed in sterile, colour free DMEM/F12 media (Dulbecco's Modified Eagle Medium/Hams F12, Invitrogen) to remove surface debris, the subcutaneous fat layer was removed. Circles of full-thickness skin 15 mm in diameter were cut and placed epidermis side up on vertical glass diffusion cells of a Franz cell diffusion system (Crown Glass Co, NJ, USA). The skin was secured between two clamped ground glass joints and allowed to equilibrate and hydrate for approximately 30 minutes with the receptor chambers of the diffusion cells containing colour-free DMEM/F12+1% (v/v) of an antibiotic mix (200 mM L-glutamine, 10,000 units penicillin, 10 mg streptomycin per ml; Sigma, USA). The temperature of the jacketed diffusion cells was maintained at 34° C.±1° C. and the contents were constantly stirred using a mini magnetic stirrer. Proteins with peroxidase activity or a control were injected intradermally into the skin discs in a volume of 100 μl using a 27 gauge needle. After 72 hours the skin discs were removed and bisected with one half fixed in 4% buffered formalin for histological assessment and the other half snap frozen in liquid nitrogen for immunohistochemical detection of collagen I and III protein within the dermis. Frozen skin pieces were processed into cryoblocks, cut onto slides and fixed in acetone/methanol. All slides were blocked with 2% (w/v) bovine serum albumin (BSA) in HBSS and then incubated with either anti-human collagen type I or III primary antibodies (Chemical Credential, ICN or DakoCytomation respectively). The secondary antibody was biotinylated Multi-Link (DakoCytomation) with detection by streptavidin-biotinylated alkaline phosphatase (DakoCytomation). Visualisation was achieved by incubating each section with Naphthol AS/MX phosphate/fast red substrate containing 5 mM levamisole (Sigma). After washing, slides were counter stained with Mayer's Haematoxylin and assessed for collagen expression.

[1] = system: fibroblast cells isolated from an adult subject; assay: Total protein incorporated into the extracellular matrix (silver stained gel); assay type: cell-based, human; conditions: 10% FBS + 50 ug/ml ascorbic acid, 72 hours
Experimental: To ensure the soluble ECM proteins stimulated by the proteins with peroxidase activity are incorporated into the extracellular matrix generated by human fibroblast cells, given that this is a key requirement for the regeneration of collagen-rich tissues like skin and other organs and tissues, total proteins were extracted from the cell matrix. In these experiments, six well culture plates were seeded with fibroblast cells isolated from an adult subject at a density of 1.5×10^5 cells/well and after one week of culture, cells were treated with proteins with peroxidase activity in media containing 10% FBS and with the addition of ascorbic acid (vitamin C) which is a well known cofactor important for the cross linking of collagen molecules to generate polymeric fibres. Wells were supplemented daily to provide a final concentration of 50 ug/ml ascorbic acid in the media. After 72 hours the cell media was removed, the wells washed with warm PBS and the cell matrix extracted.
The total protein content of the cell matrix was solubilised by the addition of 500 ul/well of RIPA buffer (25 mM Tris-HCl pH7.4; 150 mM NaCl; 1% Triton X-100; 0.5% Na deoxycholate; 0.05% SDS). The cell matrix was scraped off the bottom of each well and the plates placed on a shaking platform for 10 minutes. The extracts were transferred to eppendorf tubes, vortexed vigorously and centrifuged at 12,000 rpm, 4° C. for 5 minutes. The DNA pellet was visualised and gently removed and the samples stored at −80° C. until assessment.
Total cell extracts were assessed by polyacrylamide gel electrophoresis. Samples were prepared by adding an appropriate amount of reduced loading buffer to neat cell extracts and boiling for 5 minutes. Samples were then loaded onto a 4-12% BisTris gradient gel (Invitrogen) together with molecular weight markers (Magic Mark XP and SeeBlue prestained markers; Invitrogen) and resolved for […] at 150V in a Novex mini-cell system (Invitrogen) using NuPage MES SDS running buffer. […]

[2] = system: adult primary fibroblast cells and HFF cells; assay: Organisation of collagen fibers on coverslips (collagen I immunohistochemistry); assay type: cell-based, human; conditions: treated up to 7 days
Experimental: ECM, rather than disorganized ECM which would increase the risk of scar formation within the dermis and contribute to the generation of structurally and functionally impaired replacement tissue, additional experiments were performed to visualize the collagen fibers formed by fibroblast cells stimulated with proteins having peroxidase activity. These experiments involved growing adult primary fibroblast cells and HFF cells on microscope slide coverslips placed into each well of six well tissue culture plates. Each well containing a coverslip was seeded with 1.5×10^5 cells and after one week of culture, the cells were treated with a range of proteins having peroxidase activity for up to 7 days. At the end of the experiment, the cell media was removed and the cells and cell-associated ECM fixed by the addition of 10% formalin. The coverslips were removed from the tissue culture plate and stained immunohistochemically for collagen I using the method outlined in Example 3 for the SMA immunohistochemistry with the variation that 5 μg/ml rabbit anti Collagen-I (Rocklands Immunochemicals) was used as the primary antibody.

lactoperoxidase [LP]
collagen III immuno-reactivity (human skin): did not appear to affect collagen III immuno-reactivity
staining intensity for collagen I (human skin): increased staining intensity for collagen I
proteinaceous material in the extracellular matrix versus untreated control cells [1]: produced much more proteinaceous material

microperoxidase [MP]
collagen fibers in the cell-associated ECM [2]: collagen was not the major ECM protein deposited
collagen III immuno-reactivity (human skin): increased collagen III staining
staining intensity for collagen I (human skin): increased staining intensity for collagen I
proteinaceous material in the extracellular matrix versus untreated control cells [1]: produced much more proteinaceous material

soy bean peroxidase [SBP]
proteinaceous material in the extracellular matrix versus untreated control cells [1]: produced much more proteinaceous material

B1: horse radish peroxidase (protein, UniProt P00433 31-338, looked up)
Peroxidase C1A: QLTPTFYDNSCPNVSNIVRDTIVNELRSDPRIAASILRLHFHDCFVNGCDASILLDNTTSFRTEKDAFGNANSARGFPVIDRMKAAVESACPRTVSCADLLTIAAQQSVTLAGGPSWRVPLGRRDSLQAFLDLANANLPAPFFTLPQLKDSFRNVGLNRSSDLVALSGGHTFGKNQCRFIMDRLYNFSNTGLPDPTLNTTYLQTLRGLCPLNGNLSALVDFDLRTPTIFDNKYYVNLEEQKGLIQSDQELFSSPNATDTIPLVRSFANSTQTFFNAFVEAMDRMGNITPLTGTQGQIRLNCRVVNSNS
collagen fibers in the cell-associated ECM [2]: strongly stained, parallel collagen fibers
collagen III immuno-reactivity (human skin): increased collagen III staining
staining intensity for collagen I (human skin): increased staining intensity for collagen I
